Drawing on ChEMBL document CHEMBL5223089, “Cyclosporin Structure and Permeability: From A to Z and Beyond” (J Med Chem, 2021), this text covers Papp, fold change (FC) and Activity for eight compounds.

Data set [1] is described as follows: Permeability of compound by PAMP assay. It counts as ADME. To be noted: not told; read-out: permeability.
For data set [2], the species on record is Homo sapiens. The experiment in a line: Binding affinity to mCherry labelled that cyclophilin (unknown origin) assessed as fold change.
For data set [3], the species on record is Homo sapiens. Briefly: Binding affinity to mCherry labelled that cyclophilin (unknown origin) relative to control.

As for `C/C=C/C[C@@H](C)[C@@H](O)[C@H]1C(=O)N[C@@H](C)C(=O)N(C)CC(=O)N(C)[C@@H](CC(C)C)C(=O)N[C@@H](C(C)C)C(=O)N(C)[C@@H](CC(C)C)C(=O)N[C@@H](C)C(=O)N[C@H](C)C(=O)N(C)[C@@H](CC(C)C)C(=O)N(C)[C@@H](CC(C)C)C(=O)N(C)[C@@H](C(C)C)C(=O)N1C`, in data set [1], the Papp was found to be 7.9 ×10⁻⁶ cm/s. The same measure, in the same setting: in the case of `C/C=C/C[C@@H](C)[C@@H](O)[C@H]1C(=O)N[C@@H](CC)C(=O)N(C)CC(=O)N[C@@H](CC(C)C)C(=O)N[C@@H](C(C)C)C(=O)N(C)[C@@H](CC(C)C)C(=O)N[C@@H](C)C(=O)N[C@H](C)C(=O)N(C)[C@@H](CC(C)C)C(=O)N(C)[C@@H](CC(C)C)C(=O)N(C)[C@@H](C(C)C)C(=O)N1C` it was 2.5 ×10⁻⁶ cm/s; in that of `C/C=C/C[C@@H](C)[C@@H](O)[C@H]1C(=O)N[C@@H](CC)C(=O)N(C)CC(=O)N[C@@H](CC(C)C)C(=O)N[C@@H](C(C)C)C(=O)N[C@@H](CC(C)C)C(=O)N[C@@H](C)C(=O)N[C@H](C)C(=O)N(C)[C@@H](CC(C)C)C(=O)N(C)[C@@H](CC(C)C)C(=O)N(C)[C@@H](C(C)C)C(=O)N1C`, 4.1 ×10⁻⁶ cm/s. As for `C/C=C/C[C@@H](C)[C@@H](O)[C@H]1C(=O)N[C@@H](CC)C(=O)N(C)CC(=O)N(C)[C@@H](C(C)C)C(=O)N[C@@H](C(C)C)C(=O)N(C)[C@@H](CC(C)C)C(=O)N[C@@H](C)C(=O)N[C@H](C)C(=O)N(C)[C@@H](CC(C)C)C(=O)N(C)[C@@H](CC(C)C)C(=O)N(C)[C@@H](C(C)C)C(=O)N1C`, the fold change (FC) in the data set filed under Homo sapiens [2] was found to be 2. This compound also returned an Activity in the data set listed under Homo sapiens [3] of 126%. Regarding `C/C=C/C[C@@H](C)[C@@H](O)[C@H]1C(=O)N[C@@H](C(C)C)C(=O)N(C)CC(=O)N(C)[C@@H](CC(C)C)C(=O)N[C@@H](C(C)C)C(=O)N(C)[C@@H](CC(C)C)C(=O)N[C@@H](C)C(=O)N[C@H](C)C(=O)N(C)[C@@H](CC(C)C)C(=O)N(C)[C@@H](CC(C)C)C(=O)N(C)[C@@H](C(C)C)C(=O)N1C`, in data set [1], the Papp stood at 4.4 ×10⁻⁶ cm/s. On to `C/C=C/C[C@@H](C)[C@@H](O)[C@H]1C(=O)N[C@@H](CC)C(=O)N(C)CC(=O)N(C)[C@@H](CC(C)C)C(=O)N[C@@H](C(C)C)C(=O)N(C)[C@@H](CC(C)C)C(=O)N[C@@H](C)C(=O)N[C@H](C)C(=O)N(C)[C@@H](CC(C)C)C(=O)N(C)[C@@H](CC(C)C)C(=O)N[C@@H](C(C)C)C(=O)N1C`, for which the Papp in data set [1] came to 0.42 ×10⁻⁶ cm/s. Regarding `C/C=C/C[C@@H](C)[C@@H](OC(C)=O)[C@H]1C(=O)N[C@@H](CC)C(=O)N(C)CC(=O)N(C)[C@@H](CC(C)C)C(=O)N[C@@H](C(C)C)C(=O)N(C)[C@@H](CC(C)C)C(=O)N[C@@H](C)C(=O)N[C@H](C)C(=O)N(C)[C@@H](CC(C)C)C(=O)N(C)[C@@H](CC(C)C)C(=O)N(C)[C@@H](C(C)C)C(=O)N1C`, the Papp in data set [1] is 3.3 ×10⁻⁶ cm/s. Turning to `C/C=C/C[C@@H](C)[C@@H](O)[C@H]1C(=O)N[C@@H]([C@@H](C)O)C(=O)N(C)CC(=O)N(C)[C@@H](CC(C)C)C(=O)N[C@@H](C(C)C)C(=O)N(C)[C@@H](CC(C)C)C(=O)N[C@@H](C)C(=O)N[C@H](C)C(=O)N(C)[C@@H](CC(C)C)C(=O)N(C)[C@@H](CC(C)C)C(=O)N(C)[C@@H](C(C)C)C(=O)N1C`, in data set [1], the Papp was determined as 2.8 ×10⁻⁶ cm/s.
